Results reported in ChEMBL document CHEMBL1156263, “Single agents with designed combination chemotherapy potential: synthesis and evaluation of substituted pyrimido[4,5-b]indoles as receptor tyrosine kinase and thymidylate synthase inhibitors and as antitumor agents” (J Med Chem, 2010).
Calls of active or inactive are those of the source. The rule behind the calls is not given here.

Key:
[1] = molecular target: T1, Mitogen-activated protein kinase; ERK1/ERK2 (Homo sapiens) (UniProt P27361+P28482); assay: Reduction of ERK1/2 activation in human MDA-MB-435 cells at 20 uM after 1 hr by Western blot analysis; assay type: cell-based
[2] = molecular target: T1, Mitogen-activated protein kinase; ERK1/ERK2 (Homo sapiens); assay: Reduction of ERK1/2 activation in human MDA-MB-435 cells at 20 uM after 4 hrs by Western blot analysis; assay type: cell-based
[3] = molecular target: T2, Dihydrofolate reductase (Homo sapiens) (UniProt P00374); assay: Inhibition of human DHFR at IC50
T2 sequence (whole entry): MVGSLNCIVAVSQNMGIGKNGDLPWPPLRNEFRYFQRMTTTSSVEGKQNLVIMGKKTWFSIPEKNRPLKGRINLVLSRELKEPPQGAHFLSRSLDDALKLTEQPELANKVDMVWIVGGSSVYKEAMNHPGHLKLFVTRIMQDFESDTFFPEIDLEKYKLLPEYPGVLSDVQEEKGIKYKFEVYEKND

[4] = molecular target: T3, Dihydrofolate reductase (Escherichia coli) (UniProt P0ABQ4); assay: Inhibition of Escherichia coli DHFR at IC50
T3 sequence (whole entry): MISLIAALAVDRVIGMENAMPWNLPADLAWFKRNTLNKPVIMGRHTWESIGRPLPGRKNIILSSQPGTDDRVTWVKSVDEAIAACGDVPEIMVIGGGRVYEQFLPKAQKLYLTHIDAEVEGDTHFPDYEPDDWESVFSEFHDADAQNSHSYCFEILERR

[5] = molecular target: T4, Receptor-type tyrosine-protein kinase FLT3 (Homo sapiens, UniProt P36888); assay: Inhibition of Flt3 activity in human […] cells by phosphotyrosine cell-based ELISA
T4 sequence (P36888 whole entry): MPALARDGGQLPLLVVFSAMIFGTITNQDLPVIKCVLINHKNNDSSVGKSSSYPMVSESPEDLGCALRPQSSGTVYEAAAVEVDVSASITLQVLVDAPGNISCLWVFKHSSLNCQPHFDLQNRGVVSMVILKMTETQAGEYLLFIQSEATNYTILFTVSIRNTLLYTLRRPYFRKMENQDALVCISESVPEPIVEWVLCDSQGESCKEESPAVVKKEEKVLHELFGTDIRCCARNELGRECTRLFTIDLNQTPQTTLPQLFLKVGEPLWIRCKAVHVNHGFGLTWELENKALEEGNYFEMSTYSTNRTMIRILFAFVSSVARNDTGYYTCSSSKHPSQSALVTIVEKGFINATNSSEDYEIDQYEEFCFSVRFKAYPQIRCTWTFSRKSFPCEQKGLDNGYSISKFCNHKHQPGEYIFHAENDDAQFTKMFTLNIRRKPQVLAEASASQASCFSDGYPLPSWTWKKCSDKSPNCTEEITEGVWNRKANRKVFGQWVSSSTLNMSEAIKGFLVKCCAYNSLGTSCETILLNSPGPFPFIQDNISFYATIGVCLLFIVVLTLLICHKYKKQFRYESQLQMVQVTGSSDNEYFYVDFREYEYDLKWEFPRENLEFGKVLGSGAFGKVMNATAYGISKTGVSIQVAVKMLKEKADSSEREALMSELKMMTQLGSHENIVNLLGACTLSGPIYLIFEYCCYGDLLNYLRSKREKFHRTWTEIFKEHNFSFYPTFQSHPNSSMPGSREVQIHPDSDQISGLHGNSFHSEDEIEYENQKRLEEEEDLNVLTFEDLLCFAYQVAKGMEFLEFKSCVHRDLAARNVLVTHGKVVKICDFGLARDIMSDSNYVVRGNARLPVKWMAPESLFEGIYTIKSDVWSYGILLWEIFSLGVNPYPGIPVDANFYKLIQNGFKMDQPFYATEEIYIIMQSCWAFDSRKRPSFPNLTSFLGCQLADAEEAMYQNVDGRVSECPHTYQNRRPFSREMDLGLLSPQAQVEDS

[6] = molecular target: Vascular endothelial growth factor receptor 1 (Homo sapiens, UniProt P17948); assay: Inhibition of VEGFR1 in human A498 cells by phosphotyrosine cell-based ELISA
[7] = molecular target: Platelet-derived growth factor receptor beta (Homo sapiens, UniProt P09619); assay: Inhibition of PDGFRbeta in human SF539 cells by phosphotyrosine cell-based ELISA; set-up: species or system SF-539
[8] = molecular target: T5, Dihydrofolate reductase (Homo sapiens, UniProt P00374); assay: Inhibition of human DHFR
T5 sequence (P00374 whole entry): T2 sequence (whole entry)

[9] = molecular target: Epidermal growth factor receptor (Homo sapiens, UniProt P00533)
[10] = molecular target: Vascular endothelial growth factor receptor 2 (Homo sapiens, UniProt P35968)
Vascular endothelial growth factor receptor 2, sequence (P35968 whole entry): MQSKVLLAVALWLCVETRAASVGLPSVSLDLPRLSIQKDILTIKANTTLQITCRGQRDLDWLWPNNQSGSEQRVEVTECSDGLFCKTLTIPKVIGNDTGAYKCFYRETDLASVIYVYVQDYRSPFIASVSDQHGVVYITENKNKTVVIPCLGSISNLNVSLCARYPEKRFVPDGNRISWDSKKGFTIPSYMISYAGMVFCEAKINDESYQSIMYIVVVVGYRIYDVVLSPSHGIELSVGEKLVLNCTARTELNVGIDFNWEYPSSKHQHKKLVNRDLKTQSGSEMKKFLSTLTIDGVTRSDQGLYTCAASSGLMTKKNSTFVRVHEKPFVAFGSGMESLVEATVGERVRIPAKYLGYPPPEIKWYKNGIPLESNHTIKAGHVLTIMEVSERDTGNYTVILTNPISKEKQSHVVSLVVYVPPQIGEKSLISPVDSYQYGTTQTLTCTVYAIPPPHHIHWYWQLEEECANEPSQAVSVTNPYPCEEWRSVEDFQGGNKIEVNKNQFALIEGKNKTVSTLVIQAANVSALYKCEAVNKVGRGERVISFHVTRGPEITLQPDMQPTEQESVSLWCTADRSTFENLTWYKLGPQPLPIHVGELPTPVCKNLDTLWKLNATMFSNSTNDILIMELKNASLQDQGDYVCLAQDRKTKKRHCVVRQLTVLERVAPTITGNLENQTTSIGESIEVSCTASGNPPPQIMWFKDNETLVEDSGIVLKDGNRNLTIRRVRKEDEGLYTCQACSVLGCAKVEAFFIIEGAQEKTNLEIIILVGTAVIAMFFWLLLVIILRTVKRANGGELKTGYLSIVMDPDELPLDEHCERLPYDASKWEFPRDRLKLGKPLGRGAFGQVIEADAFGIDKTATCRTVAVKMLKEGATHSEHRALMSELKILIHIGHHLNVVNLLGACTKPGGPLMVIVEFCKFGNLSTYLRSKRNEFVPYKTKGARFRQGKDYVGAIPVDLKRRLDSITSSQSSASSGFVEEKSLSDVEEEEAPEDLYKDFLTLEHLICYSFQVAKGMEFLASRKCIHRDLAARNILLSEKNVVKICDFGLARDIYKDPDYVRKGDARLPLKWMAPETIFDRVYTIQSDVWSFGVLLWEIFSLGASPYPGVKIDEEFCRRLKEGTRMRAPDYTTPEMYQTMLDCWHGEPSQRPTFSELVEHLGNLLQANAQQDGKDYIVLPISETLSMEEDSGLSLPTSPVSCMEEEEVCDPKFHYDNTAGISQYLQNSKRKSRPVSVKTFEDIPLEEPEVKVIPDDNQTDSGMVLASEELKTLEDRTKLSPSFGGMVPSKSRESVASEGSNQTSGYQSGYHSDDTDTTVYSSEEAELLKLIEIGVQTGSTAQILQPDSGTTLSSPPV

T1 sequence (P27361 whole entry, looked up): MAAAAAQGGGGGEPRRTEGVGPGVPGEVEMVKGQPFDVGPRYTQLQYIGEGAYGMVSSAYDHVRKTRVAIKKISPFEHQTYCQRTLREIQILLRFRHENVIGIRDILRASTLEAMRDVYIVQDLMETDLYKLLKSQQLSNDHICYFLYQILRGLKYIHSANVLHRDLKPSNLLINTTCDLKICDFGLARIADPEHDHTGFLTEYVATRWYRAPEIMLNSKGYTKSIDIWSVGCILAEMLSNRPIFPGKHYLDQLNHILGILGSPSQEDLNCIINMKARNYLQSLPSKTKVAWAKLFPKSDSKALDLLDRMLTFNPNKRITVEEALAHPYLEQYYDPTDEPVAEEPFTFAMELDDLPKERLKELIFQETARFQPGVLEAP
T1 sequence (P28482 whole entry, looked up): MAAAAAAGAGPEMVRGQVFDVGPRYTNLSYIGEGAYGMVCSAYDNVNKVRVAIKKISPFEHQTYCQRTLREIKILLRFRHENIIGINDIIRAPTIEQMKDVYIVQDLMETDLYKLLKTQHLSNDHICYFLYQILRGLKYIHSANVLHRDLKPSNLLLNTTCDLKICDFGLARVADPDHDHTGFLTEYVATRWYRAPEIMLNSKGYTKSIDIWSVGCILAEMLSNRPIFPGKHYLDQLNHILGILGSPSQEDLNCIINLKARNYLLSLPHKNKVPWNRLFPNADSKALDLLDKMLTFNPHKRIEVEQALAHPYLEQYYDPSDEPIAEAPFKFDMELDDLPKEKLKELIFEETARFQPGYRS
Vascular endothelial growth factor receptor 1, sequence (P17948 whole entry): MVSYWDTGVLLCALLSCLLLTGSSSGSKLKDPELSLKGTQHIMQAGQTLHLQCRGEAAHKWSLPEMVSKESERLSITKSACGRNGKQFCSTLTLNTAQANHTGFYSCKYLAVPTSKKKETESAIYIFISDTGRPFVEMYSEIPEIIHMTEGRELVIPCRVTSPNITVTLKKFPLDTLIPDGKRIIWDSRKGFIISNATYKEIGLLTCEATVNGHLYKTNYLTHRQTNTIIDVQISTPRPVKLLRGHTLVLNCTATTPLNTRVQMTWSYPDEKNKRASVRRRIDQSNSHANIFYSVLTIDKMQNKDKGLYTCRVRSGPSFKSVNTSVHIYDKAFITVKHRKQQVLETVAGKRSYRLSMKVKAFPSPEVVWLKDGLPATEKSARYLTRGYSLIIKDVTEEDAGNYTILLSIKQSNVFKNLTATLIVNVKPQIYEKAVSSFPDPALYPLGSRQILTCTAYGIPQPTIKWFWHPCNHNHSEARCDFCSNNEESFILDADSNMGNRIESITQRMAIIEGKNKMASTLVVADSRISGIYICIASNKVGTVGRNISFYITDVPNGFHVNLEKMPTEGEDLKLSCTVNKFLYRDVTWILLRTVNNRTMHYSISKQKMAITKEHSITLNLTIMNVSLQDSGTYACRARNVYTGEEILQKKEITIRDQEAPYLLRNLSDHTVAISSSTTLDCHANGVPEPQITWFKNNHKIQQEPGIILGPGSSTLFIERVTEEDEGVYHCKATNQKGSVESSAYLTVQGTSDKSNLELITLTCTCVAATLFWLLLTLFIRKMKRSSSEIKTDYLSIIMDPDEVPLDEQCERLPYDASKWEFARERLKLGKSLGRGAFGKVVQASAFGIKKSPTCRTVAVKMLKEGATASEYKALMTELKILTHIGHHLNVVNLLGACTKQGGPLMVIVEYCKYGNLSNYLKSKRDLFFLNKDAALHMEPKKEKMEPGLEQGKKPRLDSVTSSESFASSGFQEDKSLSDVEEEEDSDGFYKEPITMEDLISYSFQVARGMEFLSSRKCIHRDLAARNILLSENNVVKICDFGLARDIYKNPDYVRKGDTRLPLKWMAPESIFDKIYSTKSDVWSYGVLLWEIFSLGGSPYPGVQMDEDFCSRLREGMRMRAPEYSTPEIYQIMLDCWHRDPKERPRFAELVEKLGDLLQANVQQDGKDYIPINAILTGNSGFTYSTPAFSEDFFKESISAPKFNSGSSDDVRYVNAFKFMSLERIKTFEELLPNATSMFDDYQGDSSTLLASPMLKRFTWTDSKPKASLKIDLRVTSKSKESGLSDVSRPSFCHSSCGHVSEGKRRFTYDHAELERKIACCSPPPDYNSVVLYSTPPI
Platelet-derived growth factor receptor beta, sequence (P09619 whole entry): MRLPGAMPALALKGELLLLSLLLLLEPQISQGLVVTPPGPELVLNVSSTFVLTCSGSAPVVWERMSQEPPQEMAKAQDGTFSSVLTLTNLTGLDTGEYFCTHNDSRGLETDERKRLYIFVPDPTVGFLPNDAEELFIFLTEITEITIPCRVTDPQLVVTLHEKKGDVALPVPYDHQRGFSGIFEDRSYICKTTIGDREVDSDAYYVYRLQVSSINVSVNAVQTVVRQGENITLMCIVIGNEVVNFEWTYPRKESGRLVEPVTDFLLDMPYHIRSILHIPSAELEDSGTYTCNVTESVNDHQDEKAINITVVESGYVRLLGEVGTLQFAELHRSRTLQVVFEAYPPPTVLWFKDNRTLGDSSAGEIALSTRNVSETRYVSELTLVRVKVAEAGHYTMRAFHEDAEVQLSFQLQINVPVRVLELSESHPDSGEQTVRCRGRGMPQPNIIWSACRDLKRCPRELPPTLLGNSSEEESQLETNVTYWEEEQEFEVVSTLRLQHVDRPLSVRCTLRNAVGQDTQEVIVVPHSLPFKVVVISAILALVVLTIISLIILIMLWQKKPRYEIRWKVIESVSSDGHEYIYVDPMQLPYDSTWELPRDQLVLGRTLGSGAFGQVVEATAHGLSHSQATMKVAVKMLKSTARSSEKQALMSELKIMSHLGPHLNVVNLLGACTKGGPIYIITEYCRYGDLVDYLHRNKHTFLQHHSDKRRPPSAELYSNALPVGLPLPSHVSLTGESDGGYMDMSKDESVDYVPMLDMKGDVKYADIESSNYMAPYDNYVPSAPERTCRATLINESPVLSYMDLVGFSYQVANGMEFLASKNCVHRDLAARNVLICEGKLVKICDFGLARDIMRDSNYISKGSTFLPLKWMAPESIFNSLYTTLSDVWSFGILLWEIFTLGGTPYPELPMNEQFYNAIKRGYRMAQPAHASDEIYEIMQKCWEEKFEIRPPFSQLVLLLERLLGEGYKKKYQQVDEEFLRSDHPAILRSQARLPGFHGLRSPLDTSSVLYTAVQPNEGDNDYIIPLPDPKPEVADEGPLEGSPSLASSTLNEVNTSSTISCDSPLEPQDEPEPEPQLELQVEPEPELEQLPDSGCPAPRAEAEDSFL

IC50 [5] [µM] | IC50 [7] [µM] | IC50 [9] [µM] | IC50 [10] [µM] | SMILES | Activity [1] | Activity [2] | inhibition [3] [%] | inhibition [4] [%] | IC50 [6] [µM] | IC50 [8] [µM]
39.6 | 40.3 | 10.4 | 56.3 | Cc1ccc(Sc2cccc3[nH]c4nc(N)nc(N)c4c23)cc1 | Active | Active | 7 | 27 | 160 | > 31
2.9 | – | – | – | COc1ccc(C(=O)Nc2sc3c(c2C(N)=O)CCCC3)cc1OC | – | – | – | – | – | –

SMILES | IC50 [5] [µM] | IC50 [7] [µM] | IC50 [9] [µM] | IC50 [10] [µM] | Activity [1] | Activity [2] | inhibition [3] [%] | inhibition [4] [%] | IC50 [6] [µM] | IC50 [8] [µM]
Nc1nc(N)c2c(n1)[nH]c1cccc(Sc3ccccc3)c12 | 41.2 | – | – | – | Active | Active | 17 | 35 | 118 | > 33
